Read-outs that look alike come from different tables or passages of the source.
Tests used:
bcl-2 promoter = bcl-2 promoter activity assay in transfected N2a cells; type: cell-based
Protocol: Promoter Activity Assay: […] Vincent Bours (University of Liege, Belgium) (Reference 41). The bcl-2 Luc-reporter plasmids containing the fragment from -3934 to -8 from the bcl-2 promoter was also generous gift from Dr. L. Boxer (Stanford University, California). […] All promoter assays were performed in duplicates. Enzyme activities were normalized to the protein concentration of the extracts.

G93A mice [1] = test: Motor performance on rotarod; type: in vivo; conditions: most efficacious doses, after 13 wks through endstage disease
Body weight = type: in vivo; conditions: G93A mice, beginning after 100 days
G93A transgenic ALS mice = conditions: for Survival (Days ± SD) / Percentile change (survival extension): G93A mice; for Percentile change (survival extension): vs 0 mg/kg/d
Protocol: We have standardized criteria to ensure homogeneity of the cohorts within the testing groups. Mice were randomized from 24 litters all within 4 days from the same ‘f’ generation. Body weights were taken at 20 days and mice were equally distributed according to weight within each experimental cohort. Mice under 8 g at 20 days were excluded from the experiments.
Intraperitoneal Dosing: Based upon previous studies (Reference 29), a dose response study was performed, treating groups (n=20) of wild type and G93A mice with 200, 600, 1,200, 2,000 and 5,000 mg/kg by daily intraperitoneal injection (100 μl) of sodium butyrate (Acros Organics/Fisher Scientific, Fairlawn, N.J.) dissolved in PBS and made fresh daily. Additional groups of mice were treated in the same manner with 100, 200, 400, 600, and 800 mg/kg of phenylbutyrate (Triple Crown America, Inc. Perkasie, Pa.). Control groups of G93A mice were treated with PBS injection (vehicle). Approximately 260 mice were used for behavioral and survival analyses.
Motor performance and ability to feed was closely monitored and used as the basis for determining when to euthanize the mice. The criterion for euthanization was the point in time the ALS mice were unable to right themselves after being placed on their back for 30 seconds. Some deaths occurred overnight and were recorded the following morning.

G93A mice [2] = conditions: at 120 days, PBS-treated 4,680.6±847.4, WT 11,580.9±221.2
G93A mice [3] = conditions: 120 days; for reactive astrogliosis (GFAP immunostaining): G93A mice spinal cord sections; for gross spinal cord atrophy: G93A mice
ALS mice = conditions: References 10 and 11; cited from earlier work
humans with ALS = conditions: cited from earlier work
[4] = test system: N2a mutant SOD (G41D) cells; conditions: 1 mM, 12 hr pretreatment, X/XO 6 hr, MTT, vs untreated cells
Protocol: (§1) N2a Cell Culture: N2a monolayer cell cultures were grown in 50% DMEM and 50% OPTI-MEM with 5% fetal bovine serum (FBS), 1% antibiotic antimycotic, and 400 microgram/ml of the neomycin analog G418. Differentiation was induced within 3 days in serum-free medium. The SOD1 mutation (G41D) was introduced into a plasmid clone of human genomic SOD1 (pHGSOD-SVneo). Stably transfected lines of N2a cells were selected with the drug G418, after transfection with SOD1 pHGSOD-SVneo plasmids. Differentiated cells were incubated without FBS for 6 days before treatments. […] Cell viability was measured by MTT assay.

WT and WT-SOD1 N2a cells = conditions: MTT
Protocol: as §1

G93A mice [5] = conditions: at 17 weeks, vs untreated G93A mice
Protocol: Clinical Assessment: Both motor performance and body weight were measured throughout the study. Training sessions were given on days 21 and 22 to acclimate the mice to the rotarod apparatus (Columbus Instruments, Columbus, Ohio). Motor performance (constant rotation at 16 rpm) was assessed weekly from 23-100 days of age and twice weekly from 101 days of age. Three 60 sec trials were given during each session and averaged. Body weights were recorded twice weekly at the same time of day. Gait analysis was performed measuring stride length (Reference 49).

NF-κB p50 [6] = conditions: G93A mice, vs WT and vehicle-treated
Protocol: (§2) Western Blotting: Tissue lysates and subcellular fractions were prepared using an ice-cold cell extraction buffer containing 50 mM Tris-HCl, pH 7.4, 150 mM NaCl, 2 mM EDTA, 1% Triton X-100, 1 mM phenylmethylsulfonyl fluoride (PMSF), 10 mg/ml leupeptin, 1 μM pepstatin, 1 mM N-ethylmleimide (NEM), 2 mM Na3VO4, 20 mM sodium pyrophosphate, and 50 mM NaF). Lysates were centrifuged at 15,000 rpm at 4° C. for 30 min. Then the protein concentration was quantified and samples were boiled for 10 min with Laemmli buffer (15 is 100 mM Tris-HCL, pH 6.8, 4% SDS, 200 mM dithiothreitol, 20% glycerol, 2% SDS, 0.2% bromophenol blue, 10 μg/ml aprotinin, 10 μg/ml leupeptin) at 100° C. In general, 30 μg of proteins were electrophoresed on 10% SDS-polyacrylamide gel and transferred to nitrocellulose membrane. Membranes were blocked in 5% skim milk in TBST (Tris, pH 7.4; 150 mM NaCl; 0.05% Tween 20) for 30 min at room temperature. Blots were probed with primary antibodies overnight at 4 ° C. […] HRP-conjugated secondary IgG anti-Rabbit IgG and anti-mouse IgG (Bio-Rad Laboratories, Inc., Hercules, Calif.) were used at 1:5000 and 1:3000, respectively. HL-60 Cell lysates were used as positive controls (Upstate Biotechnology, Lake Placid, N.Y.).

activated caspase 3 = conditions: G93A mice, 120 days, vs untreated
Protocol: as §2

activated caspase 9 = conditions: G93A mice, 120 days, vs untreated
Protocol: as §2

bcl-2 [7] = conditions: G93A mice, vs vehicle-treated
Protocol: as §2

cytochrome c = conditions: G93A spinal cord, 120 days, vs PBS-treated
Protocol: as §2

plκB [8] = conditions: G93A mice
Protocol: as §2

[9] = test system: histone 3 and histone 4 acetylation; conditions: treated WT and G93A mice
acetylated NF-κB p50 = conditions: 1 mM
Protocol: (§3) Freshly isolated spinal cords from wild type and G93A mice were minced and incubated with neurobasal medium for 12 hr. […] After incubation, the tissues were harvested and equally divided for Western blot analysis and RT-PCR.
Detection of Acetylated NF-κB p50: For detection of the levels of acetylated NF-κB p50, 200 μg of nuclear extracts were diluted to a total volume of 500 microliter in lysis buffer (100 mM Tris buffer, pH7.4, containing 1% Triton X-100, 150 mM NaCl, 1 mM sodium orthovanadate, 5 mM sodium fluoride, 3 mM PMSF, 3 mM DTT, 0.5 mg/m leupeptin, and 10 mg/ml aprotinin) and incubated with 7 μl of goat anti-p50 antibody (Santa Cruz, Santa Cruz, Calif.) by shaking overnight at 4° C. Thirty-two μl of protein A-sepharose (50% v/v slurry) was added to lysates and left for 1 hr at 4° C. Beads were collected by centrifugation and washed twice with lysis buffer, once in PBS and finally resuspended with 40 μl of 2×SDS loading buffer. Samples were boiled and a 20 μl aliquot was separated in a 10% SDS-PAGE. After transferring the proteins to a nitrocellulose membrane acetylated p50 proteins were detected in Western blot analysis using an acetyl lysine-specific antibody (AbCam, Cambridge, Mass. at 1:1000).

bcl-2 [10] = conditions: spinal cord tissue cultures, 1 mM, time-dependent
Protocol: as §3
as §2, with “HL-60 Cell lysates were used as positive controls (Upstate Biotechnology, Lake Placid, N.Y.).” left out

plκB [11] = conditions: spinal cord tissue cultures, 1 mM, time-dependent
Protocol: as §3
as §2, with “HL-60 Cell lysates were used as positive controls (Upstate Biotechnology, Lake Placid, N.Y.).” left out

bcl-2 mRNA = conditions: spinal cord tissue cultures, ex vivo administration
Protocol: as §3

NF-κB p50 [12] = conditions: N2a cells, 1 mM for three hours
Protocol: (§4) Immunofluorescence Staining and Microscopy: Indirect labeling methods were used to determine plκB and NF-κB p50 in N2aCells. […] The cells were washed with warm PBS and fixed at room temperature for 15 min with 4% paraformaldehyde (PFA). After washing with PBS, fixed cells were incubated with blocking solution containing 0.3% Triton X-100, 5% bovine serum albumin, and 3% goat serum for 1 hr, followed by incubation with primary antibodies overnight at 4° C. After three washes with PBS, the cells were incubated for 1 hr with FITC-conjugated (1:200 dilution) and Cy3-conjugated secondary antibody (1:200 dilution; Vector Laboratories, Burlingame, Calif.). The slides were washed three times with PBS and mounted with fluorochrome mounting solution. Images were analyzed using a fluorescence microscope. Control experiments were performed in the absence of primary antibody.

plκB [13] = conditions: N2a cells, 1 mM for three hours
Protocol: as §4

## COc1cc(/C=C/C(=O)CC(=O)/C=C/c2ccc(O)c(OC)c2)ccc1O [Curcumin]
bcl-2 promoter; N2a cells, with PBA
  effect on PBA-induced bcl-2 promoter activity: dose-dependently blocked

## CCCC(=O)[O-].[Na+] [NAB, sodium butyrate]
G93A mice [1]
  motor performance (rotarod): significantly improved
Body weight
  body weight loss: significantly reduced
G93A transgenic ALS mice; 200 mg/kg/d i.p.
  Survival (Days ± SD): 129.2 ± 4.5 days
G93A transgenic ALS mice; 600 mg/kg/d i.p.
  Survival (Days ± SD): 141.8 ± 5.9 days
  Percentile change (survival extension): 12.5%
G93A transgenic ALS mice; 1200 mg/kg/d i.p.
  Survival (Days ± SD): 151.3 ± 6.8 days
  Percentile change (survival extension): 20%
mice; 2 g/kg/d i.p.
  time to death (mice became moribund and died): 1 to 9 days
mice; 4 g/kg/d i.p.
  time to sudden death: 0.5 to 1.0 h
G93A mice [2]; 1.2 g/kg/d i.p. from 21 days
  estimated number of ventral horn neurons, lumbar cord: 9,604.4±346.2
G93A mice [3]
  reactive astrogliosis (GFAP immunostaining): reduced
G93A mice [3]; 1.2 g/kg/d
  gross spinal cord atrophy: ameliorated

## [O-][n+]1cccc(/C(Cl)=N/OC[C@H](O)CN2CCCCC2)c1 [arimoclomal]
ALS mice
  survival extension: 22%

## Nc1nc2ccc(OC(F)(F)F)cc2s1 [riluzole]
Humans with ALS
  extension of life: 10-15%

## sodium phenylbutyrate [PBA]
[4]
  improvement of cell viability: 34.7%
WT and WT-SOD1 N2a cells
  protection against X/XO-induced cell death: protects
G93A mice [1]
  motor performance (rotarod): significantly improved
Body weight
  body weight loss: significantly reduced
G93A mice [5]
  stride length: markedly improved
NF-κB p50 [6]
  expression of NF-κBp50: Marked increased expression
Activated caspase 3
  activated caspase 3 (Western blot): significantly reduces
Activated caspase 9
  activated caspase 9 (Western blot): significantly reduces
bcl-2 [7]
  Bcl-2 expression in spinal cord sections: restored to WT levels
Cytochrome c
  release of cytochrome c into the cytosol of neurons: dramatic reduction
plκB [8]
  phosphorylation of lκB in the ventral horn: increased
[9]
  histone 3 and histone 4 acetylation (Western blot): markedly increased
Acetylated NF-κB p50; spinal cord tissue cultures from G93A mice
  time of induced NF-κBp50 acetylation: 3 to 6 h
Acetylated NF-κB p50; spinal cord tissue cultures from WT mice
  time of induced NF-κBp50 acetylation: 6 to 24 h
bcl-2 [10]
  bcl-2 protein: increased
plκB [11]
  plκB protein: increased
bcl-2 mRNA
  mRNA upregulation of bcl-2: induced at 3 hours and sustained until 12 hours
bcl-2 promoter; N2a cells transfected with bcl-2 reporter plasmids
  increase of bcl-2 promotor activity: 90%
bcl-2 promoter; N2a cells transfected with bcl-2 reporter plasmids, after 24 h of incubation
  induction of bcl-2 promotor activity: approximately 2 fold
bcl-2 promoter; N2a cells, transfection assay
  transactivation of wild type κB site bcl-2 promotor: transactivates
NF-κB p50 [12]
  nuclear translocation of NF-κB p50 immunofluorescence: increased
plκB [13]
  cytosolic plκB immunofluorescence: increased
G93A transgenic ALS mice; 200 mg/kg/d i.p.
  Survival (Days ± SD): 136.5 ± 5.5 days
  Percentile change (survival extension): 8.6%
G93A transgenic ALS mice; 400 mg/kg/d i.p.
  Survival (Days ± SD): 153.2 ± 6.4 days
  Percentile change (survival extension): 21.9%
G93A transgenic ALS mice; transgenic SOD1 mice, this study, dose not stated
  survival benefit: 22%
mice; 600 mg/kg/d i.p.
  morbidity and mortality: morbidity and mortality
mice; 800 mg/kg/d i.p.
  morbidity and mortality: morbidity and mortality
G93A mice [2]; 400 mg/kg/d i.p. from 21 days
  estimated number of ventral horn neurons, lumbar cord: 10,378.4±304.4
G93A mice [3]
  reactive astrogliosis (GFAP immunostaining): reduced
G93A mice [3]; 400 mg/kg/d
  gross spinal cord atrophy: ameliorated
